Square brackets hold non-standard residues; d marks the D form. Peptide text beside a SMILES is read from it. * marks the point of attachment. NHOctadecyl = CCCCCCCCCCCCCCCCCCN*; NHPhenethyl = c1ccc(CCN*)cc1; Morpholide = C1CN(*)CCO1; PhAc = O=C(Cc1ccccc1)*; NHBn = c1ccc(CN*)cc1; Ahx = NCCCCCC(=O)O; NHNH2 = NN*
test system: Jurkat T cell line; assay: Binding of Jurkat cells to frozen human RA synovial sections; assay type: cell-based; conditions: 10-mer at 500 μg/ml; inhibitor peptide at its IC50
Protocol: Binding studies were carried out using the Jurkat T cell line and frozen RA synovial sections. […] Stimulated MOLT-4 cells behaved similarly.

Structure (SMILES) | inhibition of Jurkat cell adhesion to RA synovial sections
CC[C@H](C)[C@H](NC(=O)[C@H](CCC(=O)O)NC(=O)[C@@H]1CCCN1C(=O)CN)C(=O)N[C@@H](CC(C)C)C(=O)N[C@@H](CC(=O)O)C(=O)N[C@H](C(=O)N1CCC[C@H]1C(=O)N[C@@H](CO)C(=O)N[C@H](C(=O)O)[C@@H](C)O)C(C)C [G P E I L D V P S T free amine free acid, GPEILDVPST] (H-GPEILDVPST-OH) | could be inhibited

biological target: T1, VLA-4 (Homo sapiens, UniProt P05556+P13612); assay: not given; assay type: cell-based; conditions: relative to standard peptide SEQ ID NO:3 (=1), normalized IC50; about one-tenth or less of SEQ ID NO:3 assigned zero
T1 construct: host or cells: Jurkat (human T lymphoblastic line)
Protocol: Binding inhibition is measured here as a concentration of peptide that inhibits one-half the binding between a standard number of Jurkat cells and a standard amount of CS-1 peptide bound to the surface of a microtiter plate well. Those concentrations are conveniently expressed as IC50 values, smaller numbers indicating a lower concentration required to inhibit 50 percent binding and therefore greater potency. Further specifics of this assay are provided hereinafter.
Jurkat cells (ATCC TIB 152), a human T lymphoblastic line, labeled with ^51 chromium were used to assay in vitro binding inhibition provided by various peptides discussed herein.
The plates were prepared as follows: The 25-mer CS1 peptide (SEQ ID NO:1) dissolved at 0.5-1 μg/ml in a buffer of 0.1M NaHCO3 at pH 9.5 tha also contained 10 μg/ml of bovine serum albumin (BSA) or a conjugate o the CS1 peptide linked to ovalbumin (CS1-OVA) dissolved at 1-2.5 μg/ml in the same buffer was used as the substrate. Each well of the microtiter plates was coated with 50 μl of substrate or buffer alone for controls The wells were permitted to dry out completely and were then rinsed twice with PBS at pH 7.4. Nonspecific binding sites of each well were then blocked using 200 μl per well of RPMI/1 percent BSA for two hours at room temperature. Both solid phaseaffixed substrates provided similar results.
Jurkat cells (3-5×10^6 cells) were placed into a 15 ml Falcon.TM roundbottom tube with a cap. The tube was centrifuged, and the extra medium was then removed.
Two hundred microliters of a ^51 Cr labeling solution were added to th centrifuged cells and maintained in contact with the cells for 90-120 minutes in a warm room. This procedure typically provides about 50,000-100,000 cpm/well with about 80-100 percent cell viability. Longer contact times provide a greater amount of labeling but lower cell viability.
The labeled cells are washed with (i) complete medium, (ii) 1 mM EDTA/PBS and then (iii) RPMI/1 percent BSA free of serum components. The cells are centrifuged after each washing. The cells are finally resuspended in serumfree RPMI/1 percent BSA at a concentration of 1×10^6 viabl cells/ml, which provides a concentration that is diluted by onehalf in th assay.
Inhibitor peptides are prepared as stock solutions at 20 mg/ml in DMSO in 1.5 ml cryogenic screwcap vials, and were stored at -70° C. Using Flow™ roundbottom or Vbottom microtiter plates, the inhibitor peptides were prepared at twice the assay concentration in RPMI/1 percent BSA at 6 μl/well.
Four initial dilutions were typically used.
The ^51 Crlabeled cells (1×10^6 cells at 60 μl/well) were then admixed with the diluted peptide solutions. The admixtures were maintained at room temperature (about 22° C.) for 30 minutes.
One hundred microliters of each inhibitor peptide/cell admixture were transferred to the substratecoated wells. This was done in triplicate for each dilution. The resulting plates were incubated for 30 minutes at 37° C. and then washed gently three times with RPMI/1 percent BSA at 200 μl/well. Binding was observed microscopically, particularly after the second wash.
The bound cells were then lysed by the addition of a 0.5 percent solution of sodium dodecylsulfate in water at 100 μl/well. The resulting solutions were then processed for counting and calculation of IC50 values following usual procedures. Appropriate positive and negative controls were used with each plate so that the results of separate assays could be normalized and compared.

T1 sequence (P13612 34-1032): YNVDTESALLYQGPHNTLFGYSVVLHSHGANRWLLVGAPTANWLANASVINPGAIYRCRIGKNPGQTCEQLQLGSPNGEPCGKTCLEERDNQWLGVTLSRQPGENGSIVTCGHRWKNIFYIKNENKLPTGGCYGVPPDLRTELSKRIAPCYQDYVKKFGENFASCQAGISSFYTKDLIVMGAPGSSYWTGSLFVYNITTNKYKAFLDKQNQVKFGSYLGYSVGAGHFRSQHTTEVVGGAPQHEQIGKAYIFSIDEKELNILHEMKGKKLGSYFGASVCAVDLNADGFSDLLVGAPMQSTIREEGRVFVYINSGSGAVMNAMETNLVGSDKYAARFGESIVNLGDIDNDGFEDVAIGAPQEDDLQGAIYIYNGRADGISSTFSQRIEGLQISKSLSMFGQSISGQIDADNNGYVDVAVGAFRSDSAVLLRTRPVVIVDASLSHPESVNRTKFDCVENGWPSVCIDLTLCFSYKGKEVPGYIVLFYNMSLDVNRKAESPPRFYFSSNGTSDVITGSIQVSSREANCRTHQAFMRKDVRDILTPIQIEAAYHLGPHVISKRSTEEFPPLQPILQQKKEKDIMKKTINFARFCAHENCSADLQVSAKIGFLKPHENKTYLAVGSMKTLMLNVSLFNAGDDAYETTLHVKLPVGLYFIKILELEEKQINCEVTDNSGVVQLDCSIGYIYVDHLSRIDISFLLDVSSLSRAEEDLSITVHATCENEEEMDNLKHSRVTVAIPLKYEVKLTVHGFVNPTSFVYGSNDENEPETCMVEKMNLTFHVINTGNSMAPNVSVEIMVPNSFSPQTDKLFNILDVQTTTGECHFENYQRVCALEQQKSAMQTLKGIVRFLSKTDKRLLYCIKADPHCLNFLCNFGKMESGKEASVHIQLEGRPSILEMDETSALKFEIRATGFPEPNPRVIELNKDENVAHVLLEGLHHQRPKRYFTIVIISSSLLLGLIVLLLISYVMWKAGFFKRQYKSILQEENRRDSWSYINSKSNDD
T1 sequence (P05556 21-798): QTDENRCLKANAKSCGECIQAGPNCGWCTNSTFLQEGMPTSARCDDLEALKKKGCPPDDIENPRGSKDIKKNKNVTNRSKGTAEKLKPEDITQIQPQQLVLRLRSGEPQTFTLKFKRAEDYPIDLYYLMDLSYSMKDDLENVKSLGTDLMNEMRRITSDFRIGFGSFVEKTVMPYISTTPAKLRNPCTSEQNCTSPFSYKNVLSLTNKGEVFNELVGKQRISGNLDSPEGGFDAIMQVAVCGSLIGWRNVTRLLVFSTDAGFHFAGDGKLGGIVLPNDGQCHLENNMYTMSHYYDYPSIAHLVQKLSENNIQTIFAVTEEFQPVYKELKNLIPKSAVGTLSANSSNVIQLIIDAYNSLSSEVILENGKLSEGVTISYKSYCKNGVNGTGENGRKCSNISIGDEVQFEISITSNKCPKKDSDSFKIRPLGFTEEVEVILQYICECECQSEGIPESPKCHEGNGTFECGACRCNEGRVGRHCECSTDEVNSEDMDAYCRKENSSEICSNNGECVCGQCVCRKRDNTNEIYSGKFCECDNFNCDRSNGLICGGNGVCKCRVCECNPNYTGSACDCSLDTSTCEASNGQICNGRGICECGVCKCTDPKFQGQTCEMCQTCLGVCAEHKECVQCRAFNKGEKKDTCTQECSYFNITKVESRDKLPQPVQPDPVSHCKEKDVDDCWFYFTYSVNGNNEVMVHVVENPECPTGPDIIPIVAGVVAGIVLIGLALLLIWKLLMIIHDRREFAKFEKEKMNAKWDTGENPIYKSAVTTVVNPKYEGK

Structure (SMILES) | RELATIVE POTENCY (inhibition of VLA-4 binding CS-1)
CC(C)C[C@H](NC(=O)c1ccccc1)C(=O)N[C@@H](CC(=O)O)C(=O)N[C@H](C(=O)N1CCC[C@H]1C(N)=O)C(C)C [X L D V P benzoyl amide] | 37
CC(C)C[C@H](NC(=O)Cc1ccccc1)C(=O)N[C@@H](CC(=O)O)C(=O)N[C@H](C(=O)N1CCC[C@@H]1C(N)=O)C(C)C [X L D V p phenylacetyl amide, N--phenylacetyl--Leu--Asp--Val--D--Pro--NH2] | 106
CC(C)C[C@H](NC(=O)Cc1ccccc1)C(=O)N[C@@H](CC(=O)O)C(=O)N[C@@H](Cc1c[nH]c2ccccc12)C(=O)N1CCC[C@@H]1C(N)=O [X L D W p phenylacetyl amide] (PhAc-LDW[dP]-NH2) | 184
CC(C)C[C@H](NC(=O)Cc1ccccc1)C(=O)N[C@@H](CC(=O)O)C(=O)N[C@@H](Cc1ccc(O)cc1)C(=O)N1CCOCC1 [X L D Y Z phenylacetyl morpholinamide, N--phenylacetyl--Leu--Asp--Tyr--morpholinamide] (PhAc-Leu-Asp-Tyr-Morpholide) | 313
CC(C)C[C@H](NC(=O)Cc1ccccc1)C(=O)N[C@@H](CC(=O)O)C(=O)N[C@@H](Cc1ccc(O)cc1)C(=O)N1CCC[C@@H]1C(N)=O [X L D Y p phenylacetyl amide, N--phenylacetyl--Leu--Asp--Tyr--D--Pro--NH2] (PhAc-LDY[dP]-NH2) | 640
CC(C)C[C@H](NC(=O)Cc1ccccc1)C(=O)N[C@@H](CC(=O)O)C(=O)NNC(=O)OC(C)(C)C [X L D Z phenylacetyl N'-t-Boc-hydrazide] | 2
CC(C)C[C@H](NC(=O)Cc1ccccc1)C(=O)N[C@@H](CC(=O)O)C(=O)NCc1ccccc1 [X L D Z phenylacetyl benzylamide] (PhAc-Leu-Asp-NHBn) | 19
CC(C)C[C@H](NC(=O)Cc1ccccc1)C(=O)N[C@@H](CC(=O)O)C(=O)NC(c1ccccc1)c1ccccc1 [X L D Z phenylacetyl benzylhydrylamide] | 3
CC(C)C[C@H](NC(=O)Cc1ccccc1)C(=O)N[C@@H](CC(=O)O)C(=O)N(Cc1ccccc1)Cc1ccccc1 [X L D Z phenylacetyl dibenzylamide] | 0
CC(C)C[C@H](NC(=O)Cc1ccccc1)C(=O)N[C@@H](CC(=O)O)C(=O)NN [X L D Z phenylacetyl hydrazide] (PhAc-Leu-Asp-NHNH2) | < 1
CC(C)C[C@H](NC(=O)Cc1ccccc1)C(=O)N[C@@H](CC(=O)O)C(=O)NCCc1ccccc1 [X L D Z phenylacetyl phenethylamide] (PhAc-Leu-Asp-NHPhenethyl) | 19

same assay, conditions: relative to standard peptide SEQ ID NO:3 (=1), normalized IC50; about one-tenth or less of SEQ ID NO:3 assigned zero; listed as X L D V p benzoyl amide

Structure (SMILES) | RELATIVE POTENCY (inhibition of VLA-4 binding CS-1)
CC(C)C[C@H](NC(=O)c1ccccc1)C(=O)N[C@@H](CC(=O)O)C(=O)N[C@H](C(=O)N1CCC[C@H]1C(N)=O)C(C)C [X L D V P benzoyl amide] | 20

same assay, conditions: relative to standard peptide SEQ ID NO:3 (=1), normalized IC50; about one-tenth or less of SEQ ID NO:3 assigned zero; listed as X L D Y P phenylacetyl amide

Structure (SMILES) | RELATIVE POTENCY (inhibition of VLA-4 binding CS-1)
CC(C)C[C@H](NC(=O)Cc1ccccc1)C(=O)N[C@@H](CC(=O)O)C(=O)N[C@@H](Cc1ccc(O)cc1)C(=O)N1CCC[C@@H]1C(N)=O [X L D Y p phenylacetyl amide, N--phenylacetyl--Leu--Asp--Tyr--D--Pro--NH2] (PhAc-LDY[dP]-NH2) | 405

test system: not listed separately; assay: Water solubility; assay type: physicochemical; conditions: forms a turbid dispersion rather than a solution

Structure (SMILES) | water solubility
CCCCCCCCCCCCCCCCCCNC(=O)CCCCCNC(=O)[C@@H]1CCCN1C(=O)[C@H](Cc1ccccc1)NC(=O)[C@H](CC(=O)O)NC(=O)[C@H](CC(C)C)NC(=O)Cc1ccccc1 [phenylacetyl--Leu--Asp--Phe--Pro--NH(CH2)5 C(O)NHC18 H37] (PhAc-LDFP[Ahx]-NHOctadecyl; C-terminus assumed) | not water-soluble
